Assay results reported in US10940139B2, “Compounds that interact with the Ras superfamily for the treatment of cancers, inflammatory diseases, rasopathies, and fibrotic disease” (Shy Therapeutics LLC, priority 2017, dated 2021).

What was measured:
[1] = system: TNFα production in RAW 264.7 macrophage cell line; test: Mouse TNF alpha quantification assay (LPS-stimulated macrophages, ELISA); assay type: cell-based; details: RAW264.7, RAW 264.7 murine leukemia virus transformed macrophage cell lines, LPS stimulation, read-out: TNF-α % Inhibition at 30 μM
[2] = system: IL6 production in RAW 264.7 macrophage cell line; test: Mouse IL6 quantification assay (LPS-stimulated macrophages, ELISA); assay type: cell-based; details: RAW264.7, RAW 264.7 murine leukemia virus transformed macrophage cell lines, LPS stimulation, read-out: IL-6 % Inhibition at 30 μM

Structure (SMILES)	inhibition at 30 µM [1]	inhibition at 30 µM [2]
O=C(Cc1cccc(F)c1)Nc1nnc(-c2ccccn2)[nH]1 [drawing 1960]	0%	1 to 25%
CC(C)(C(=O)Nc1ccnc(-c2ccccn2)n1)c1ccc(C#N)cc1 [drawing 2177]	0%	1 to 25%
NC(=O)C1CCN(c2nc(-c3ccccn3)nc3scc(-c4ccccc4)c23)CC1 [drawing 2164]	1 to 25%	1 to 25%
O=C(Nc1nnc(-c2ccccn2)[nH]1)c1ccn(-c2ccccc2)n1 [drawing 1935]	1 to 25%	1 to 25%
Cc1nn(C(C)C)cc1-c1csc2c(O)nc(-c3ccccn3)nc12 [drawing 2328]	26 to 50%	76 to 100%
Oc1nc(-c2ccncn2)nc2c(-c3cccc(C(F)(F)F)c3)csc12 [drawing 2434]	0%	26 to 50%
Cn1ccnc1-c1nc(O)c2sc(-c3ccccc3)c(-c3ccccc3)c2n1 [drawing 2415]	0%	1 to 25%
Cc1c(Br)sc2c(O)nc(-c3ccccn3)nc12 [drawing 2312]	51 to 75%	76 to 100%
Oc1nc(-c2ccccn2)nc2c(-c3cncnc3)csc12 [drawing 2326]	0%	26 to 50%
COc1ccc(CCC(=O)Nc2nc(-c3ccccn3)nc3sccc23)cn1 [drawing 2330]	51 to 75%	76 to 100%
COCCNc1nc(-c2ccccn2)nc2sc(-c3ccccc3)c(-c3ccccn3)c12 [drawing 2447]	0%	0%
Oc1nc(-c2ccccn2)nc2c(-c3ccc4c(c3)CCCO4)csc12 [drawing 2294]	0%	1 to 25%
Oc1nc(-c2ccccn2)nc2c(-c3ccc(OC4CCOC4)cc3)csc12 (stereo not drawn) [drawing 2254]	26 to 50%	76 to 100%
COc1cccc(CC2CN(C(=O)c3csc4c(O)nc(-c5ccccn5)nc34)CCN2)c1 (stereo not drawn) [drawing 2223]	1 to 25%	1 to 25%
COCCOCCN(C)C(=O)c1csc2c(O)nc(-c3ccccn3)nc12 [drawing 2113]	0%	26 to 50%
NC(=O)C1(CNc2nc(-c3ccccn3)nc3c2CCC3)CCCC1 [drawing 2043]	1 to 25%	26 to 50%
Nc1nc(-c2ccccn2)nc(C(=O)NCCc2ccncc2)c1Oc1ccccc1 [drawing 2378]	0%	0%

Structure (SMILES)	inhibition at 30 µM [1]	inhibition at 30 µM [2]
CC(C1CC1)N(CC(F)(F)F)C(=O)Cc1ccc(-c2ccccc2)cc1 (stereo not drawn) [drawing 2064]	1 to 25%	1 to 25%
Nc1nc(O)c2sc(-c3cccc(C(=O)N4CCC(O)C4)c3)cc2n1 (stereo not drawn) [drawing 2370]	0%	0%
Nc1cccc(-c2csc3c(O)nc(-c4ccccn4)nc23)n1 [drawing 2341]	26 to 50%	76 to 100%
COc1ccc(CCC(=O)Nc2nnc(-c3ccccn3)[nH]2)cc1 [drawing 1939]	0%	1 to 25%
Cc1nc(-c2ccccn2)nc(O)c1CCC(=O)NCC1COc2ccccc2O1 (stereo not drawn) [drawing 2035]	1 to 25%	0%
Cn1cnc(-c2nc(O)c3scc(-c4cccc(C(F)(F)F)c4)c3n2)c1 [drawing 2431]	0%	0%
O=C(Nc1nnc(-c2ccccn2)[nH]1)C1Cc2ccccc2O1 (stereo not drawn) [drawing 1965]	0%	1 to 25%
Oc1nc(-c2ccccn2)nc2c(-c3ccc(OC(F)F)cc3F)csc12 [drawing 2268]	26 to 50%	76 to 100%
COCc1ccc(-c2csc3c(O)nc(-c4ccccn4)nc23)cc1F [drawing 2239]	51 to 75%	76 to 100%
Cc1cc(C(=O)Nc2nc(-c3ccccn3)cs2)no1 [drawing 2009]	0%	76 to 100%
COC1CC(CNc2nc(-c3ccccn3)nc3scc(-c4ccccc4)c23)CCC1OCC(N)=O (stereo not drawn)	76 to 100%	76 to 100%
Oc1nc(-c2ccccn2)nc2sc3c(c12)CCNC3 [drawing 2244]	26 to 50%	26 to 50%
CC(C)c1noc(CCC(=O)Nc2nnc(-c3ccccn3)[nH]2)n1 [drawing 1952]	0%	1 to 25%
CC(C)c1noc(CCCC(=O)Nc2nnc(-c3ccccn3)[nH]2)n1 [drawing 1951]	1 to 25%	0%
O=c1nc(-c2ccccn2)[nH]c2scc(-c3cccs3)c12 [drawing 2024]	1 to 25%	0%
O=C1CN(c2nc(-c3ccccn3)nc3scc(-c4ccccc4)c23)CCN1CCO [drawing 2131]	1 to 25%	1 to 25%
